Assay [1] has as its system ARID1A wild-type (WT) and knockout (ARID1A−/−) HCT116 cells. Put plainly: IncuCyte growth (confluency), isogenic ARID1A WT and -/- HCT116. Type of assay: cell-based, human. Particulars: HCT116 ARID1A−/− vs WT. How it is done: FIG. 11A: Dose-response curves of isogenic ARID1A wild-type (WT) and knockout (ARID1A−/−) HCT116 cells treated with AZD-6738. Cell growth (confluency) was measured by IncuCyte automated microscopy. Data (circles) were fitted to a four-parameter dose-response model (solid lines).
(§1) In addition to the genes disclosed herein, we investigated ATRi sensitivity to the loss of ARID1A, which was previously described in Williamson et al., Nat. Comms., 7:13837, 2016, as a bona fide biomarker of ATRi sensitivity. Three isogenic ARID1A wild-type (WT) and ARID1A-deficient (ARID1A−/−) human cell line pairs were employed: HCT116, MCF10A and BEAS2B. […] To strengthen this observation, we assembled a panel of tissue-matched cancer cell lines that were either ARID1A WT or carried deleterious ARID1A alterations (LOF) and measured their sensitivity to AZD-6738. […] In aggregate, we believe that the genes named in this Application present a list of bona fide determinants of ATRi sensitivity as opposed to certain 5 biomarkers described in the scientific literature.

In assay [2] the test system is ARID1A wild-type (WT) and knockout (ARID1A−/−) BEAS2B cells. Put plainly: IncuCyte growth (confluency), isogenic ARID1A WT and -/- BEAS2B. Particulars: BEAS2B ARID1A−/− vs WT. The format is cell-based, human. The method, then: FIG. 11C: Dose-response curves of isogenic ARID1A wild-type (WT) and knockout (ARID1A−/−) BEAS2B cells treated with AZD-6738. Cell growth (confluency) was measured by IncuCyte automated microscopy. Data (circles) were fitted to a four-parameter dose-response model (solid lines).
as §1

For assay [3], the system named is ARID1A wild-type (WT) and knockout (ARID1A−/−) MCF1A cells. In words: IncuCyte growth (confluency), isogenic ARID1A WT and -/- MCF10A. The format is cell-based, human. Particulars: MCF10A ARID1A−/− vs WT. The method, then:
FIG. 11B: Dose-response curves of isogenic ARID1A wild-type (WT) and knockout (ARID1A−/−) MCF1A cells treated with AZD-6738. Cell growth (confluency) was measured by IncuCyte automated microscopy. Data (circles) were fitted to a four-parameter dose-response model (solid lines).
as §1

Assay [4] deals with cancer cell lines either wild-type for ARID1A (WT) or carrying deleterious ARID1A alterations (LOF). In words: IncuCyte growth assays in ARID1A WT and LOF cancer cell line panel. Type of assay: cell-based. Particulars: tissue-matched cancer cell line panel.
Source text: FIG. 12: EC50 values for the ATRI AZD-6738 from IncuCyte growth assays in a panel of cancer cell lines either wild-type for ARID1A (WT) or carrying deleterious ARID1A alterations (LOF). Data (circles) from two independent experiments with mean (bars)±SD (error bars).
as §1

The structures appear in SMILES notation.

On to `C[C@@H]1COCCN1c1cc(C2([S@](C)(=N)=O)CC2)nc(-c2cc[nH]c3nccc2-3)n1` [AZD-6738], for which the “Sensitivity upon ARID1A deficiency” value in assay [1], in assay [2] and in assay [3] was “did not lead to sensitivity” throughout. Besides, the “Sensitivity (EC50) of ARID1A LOF vs ARID1A WT cell lines” value in assay [4] is listed as “no significant trend towards higher ATRi sensitivity in ARID1A LOF cell lines”.

(Values after US20250228862A1, “METHODS OF USING ATR INHIBITORS” (Repare Therapeutics Inc., priority 2022, published 2025).)
